SMILES strings stand for the structures.

This experiment addresses T1, Peptidase (Staphylococcus aureus, UniProt Q7DHH4).
T1 sequence (Q7DHH4 whole entry): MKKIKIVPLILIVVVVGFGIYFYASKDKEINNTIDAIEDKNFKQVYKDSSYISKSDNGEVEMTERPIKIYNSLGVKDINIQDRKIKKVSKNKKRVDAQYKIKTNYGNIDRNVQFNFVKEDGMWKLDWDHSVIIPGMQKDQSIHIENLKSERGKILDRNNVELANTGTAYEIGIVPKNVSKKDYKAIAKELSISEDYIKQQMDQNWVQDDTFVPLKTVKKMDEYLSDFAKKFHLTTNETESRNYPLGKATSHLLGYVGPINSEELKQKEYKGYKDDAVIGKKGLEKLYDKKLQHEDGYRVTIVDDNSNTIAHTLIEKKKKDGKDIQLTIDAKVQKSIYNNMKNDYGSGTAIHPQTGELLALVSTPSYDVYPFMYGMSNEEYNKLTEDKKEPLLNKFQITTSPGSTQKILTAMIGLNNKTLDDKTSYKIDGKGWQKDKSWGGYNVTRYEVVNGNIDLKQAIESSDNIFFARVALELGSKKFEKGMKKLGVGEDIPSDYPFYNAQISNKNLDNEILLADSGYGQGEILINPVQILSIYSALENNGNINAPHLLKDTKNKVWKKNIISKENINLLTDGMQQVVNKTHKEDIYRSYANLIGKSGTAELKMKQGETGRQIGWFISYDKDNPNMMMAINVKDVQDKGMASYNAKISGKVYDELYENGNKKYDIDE
As to the kind of experiment: Binding affinity to Staphylococcus aureus PBP2a assessed as dissociation constant by SPR assay. In general terms: Surface plasmon resonance follows binding to a sensor surface in real time, without labels.
As for `Cc1ccc(NC(=O)[C@H](Cc2c[nH]c3ccccc23)NC(=O)C2CCN(C(=O)CNC(=O)OC(C)(C)C)CC2)cc1`, the koff turned out to be 0.0253 s⁻¹.
Consider `COc1ccc(-c2cc(=O)oc3c(C)c(OCC(=O)N[C@@H](Cc4c[nH]c5ccc(O)cc45)C(=O)O)ccc23)cc1`, for which the koff was determined as 0.0214 s⁻¹.
As for `COc1cc2c(c(OC)c1OC)-c1ccc(NCC(=O)NCCc3c[nH]c4ccccc34)c(=O)cc1[C@@H](NC(C)=O)CC2`, the koff turned out to be 0.0207 s⁻¹.
Then `COc1ccc(NC(=O)[C@H]2Oc3c(c(=O)oc4ccccc34)[C@@H]2c2ccc(CCCN3CCCC3=O)cc2)cc1`, with 0.0284 s⁻¹.

By koff is commonly meant a measure of how fast the partners let go of each other.
